Reference: patent US20110217260A1, “METHOD OF ENHANCING EYELASH AND EYE BROW HAIR GROWTH” (priority 2010, published 2011)
Where two headings read alike, the source gives them in different places.

Experiments:
[1] = tested on: cultured human hair follicles; conditions: cited from earlier work; for Effect on hair follicle growth in the absence of insulin: IGF-I and IGF-II 0.01-100 ng/ml; for Effect on hair follicle growth in the presence of insulin: 10 micrograms/ml insulin present; for Preventing hair follicles from entering a catagen-like state, compared with insulin / Rate of hair follicle growth compared with 10 micrograms/ml insulin: IGF-I 10 ng/ml, IGF-II 100 ng/ml
[2] = Source text: Discontinue the treatment till it disappears and restart the program. Latisse needs a prescription from a doctor in order to purchase Latisse like you would get any other medication. […] If one develops hypoglycemic symptoms due to any number of reasons, drink a sugar drink, eat a candy, or fruit cocktail.
[3] = tested on: MCF-7 human breast cancer cells; conditions: MCF-7 cells; cited from earlier work
indolent ulcers = assay: Local insulin on indolent ulcers, wound healing; type: in vivo; conditions: insulin spray on indolent ulcers, unpublished data
Source text: We have used insulin for more than a decade to enhance the effectiveness of locally injected therapeutic agents specially cancers with chemotherapeutic agents with remarkable results. Our unpublished data also supports that the insulin spray on indolent ulcers anywhere in the body, including the oral (gums) and nasal cavity. […] Application of insulin soaked cotton swabs (1-3 units in normal saline) after teeth extraction induces rapid healing with reduced pain.

eyelash hair follicles = assay: Eyelash hair growth / hair follicle transplant after topical application; type: in vivo; conditions: insulin alone, no second hypertrichosis agent
Source text: Step 4: Apply selected hair growth therapeutic agent if need be such as minoxidil or prostaglandin derived hair growth promoters which are already approved for hair growth of the eyelashes. […] Apply the clean dressing on the wound if need be.
Step 4: Apply selected hair growth therapeutic agent using PGF 2α, and analogues. Using these hair growing prostaglandins after pretreatment of the eye lids site with insulin results in much more rapid hair growth compared to when applied without insulin.

[4] = in vivo; cited from earlier work

Substance	Effect on hair follicle growth in the absence of insulin [1]	Effect on hair follicle growth in the presence of insulin [1]	Preventing hair follicles from entering a catagen-like state, compared with insulin [1]	Rate of hair follicle growth compared with 10 micrograms/ml insulin [1]	Concentration giving maximum rates of hair follicle growth ([1]; in the absence of insulin)	also measured
Growth hormone: growth hormone (somatotropin)	no effect on hair follicle growth or morphology	–	–	–	–	–
IGF-I: insulin-like growth factor 1, a growth hormone believed to work with androgens to initiate and maintain hair growth	stimulated hair follicle growth in a dose-dependent manner	no significant effect on hair follicle growth	more potent than insulin	identical	10 ng/mL	–
IGF-II: Insulin-like growth factor II	stimulated hair follicle growth in a dose-dependent manner	no significant effect on hair follicle growth	more potent than insulin	unable to stimulate hair follicle growth to the same extent as insulin	100 ng/mL	–
Insulin: hormone secreted by beta cells in the islets of Langerhans in the pancreas	–	–	–	–	–	Concentration giving maximum rates of hair follicle growth ([1]; follicles maintained in medium containing insulin): 10 micrograms/ml; Effect of insulin on hair follicle growth ([1]; range of 0.01 to 100 micrograms/ml): stimulated hair follicle growth in a dose-dependent manner; Hypoglycemia ([2]; after application of insulin to the eye lids): none of our cases developed hypoglycemia; Darkening of the eye lids ([2]; insulin alone): did not result in any appreciable darkening of the eye lids; Increase of the cytotoxic effect of methotrexate [3]: up to 10,000 fold; Wound healing (indolent ulcers): accelerated wound healing; Wound healing, uptake and growth of hair follicle transplant (eyelash hair follicles): enough to facilitate rapid wound healing along with uptake and growth of hair follicle transplant
Regular (R) humulin or novolin: Short-acting insulin	–	–	–	–	–	Duration of action [4]: 5 to 8 h; Onset of action [4]: 30 to 60 min; Peak effect [4]: 2 to 5 h
